Patent publication US11767278B2, “Plant extract compositions for forming protective coatings” (Apeel Technology, Inc., priority 2015, dated 2023)

Tested on: avocados
Assay: Mass loss rates of avocados coated with compounds extracted by thermal depolymerization of cutin
Parameters: species or system avocado
Settings: unpeeled avocados dipped in 10 mg/mL solution in ethanol, humidity about 40%-55%
Protocol: Protective coatings were formed over avocados by extracting compounds by method described herein (thermal depolymerization of cutin) and depositing the compounds over the outer surface of the (unpeeled) avocados. The mass loss rates of the avocados were then measured and compared to those of uncoated avocados. All coatings were formed by dipping the avocados in a solution comprising the associated compounds dissolved in substantially pure ethanol at a concentration of 10 mg/mL, placing the avocados on drying racks, and allowing the avocados to dry under ambient room conditions at a temperature in the range of about 23° C.-27° C. and humidity in the range of about 40%-55%. The avocados were held at these same temperature and humidity conditions for the entire duration of the time they were tested.
Mass loss rates are shown in FIG. 16 for untreated (e.g., uncoated) avocados in bar 1602, for avocados coated with ethyl 10,16-dihydroxyhexadecanoate (referred to as “EtDHPA”) in bar 1604, and for avocados coated with a mixture of EtDHPA and 1,3-dihydroxypropan-2-yl hexadecanoate (referred to as “PA-2G”) in bar 1606, where for bar 1606 the EtDHPA and PA-2G were mixed at a mass ratio of 30:70. […]

CCOC(=O)CCCCCCCCC(O)CCCCCCO (centres unmarked) [EtDHPA, ethyl 10,16-dihydroxyhexadecanoate]
average rate of mass decrease of coated avocados (mass loss rate) (dried, held at about 23-27 °C, group of 30 avocados, FIG. 16): about 1.06 % per day
reduction of average mass loss rate as compared to the uncoated avocados (about 23-27 °C, uncoated avocados about 1.21% per day): more than 12%
